This is an account of results in article PMC9458978, “Design, synthesis and biological evaluation of novel biphenylsulfonamide derivatives as selective AT2 receptor antagonists” (Frontiers in Chemistry, 2022).

The target of one data set is T1, AT1 receptor (Rattus norvegicus, UniProt P25095).
T1 construct: Rat liver membranes were prepared according to the method of Dudley et al; from tissue; host or cells: rat liver membranes
As to the kind of experiment: Rat liver membrane AT1 receptor binding assay ([125I]-Ang II displacement). Particulars: displacement of [125I]-Ang II, rat liver membranes; means ± SE, triplicate; read-out: Ki (nM) AT1R. The method, then: The target compounds were evaluated for AT1 receptor binding affinity by displacement of [^125I]-Ang II from the AT1 receptor in rat liver membranes. The radio-iodinated AT2 receptor selective ligand [^125I]-CGP42112 was used to study AT2 receptor binding affinity in HEK-293 cells (HEK293-hAT2R) ([Dudley et al., 1990]; [Whitebread et al., 1991]). All of above methods were widely accepted and used to evaluate the binding activity of AT1 and AT2 receptors.
Rat liver membranes were prepared according to the method of Dudley et al ([Dudley et al., 1990]). After HEK-293 cells were transfected with the AT2 receptor, a lysis buffer was used to separate the cell membrane of HEK-293 cells ([Grieger et al., 2016]), using 27-G Resuspend. The lysis solution was mixed and centrifuged at 12,000 g for 10 min at 4°C. Details are shown in the Supplementary Material.
3. Radioligand binding assay steps
3.1 Rat Liver Membrane AT1 Receptor Binding Assay.
Rat liver membranes were prepared according to the method of Dudley et al[1].
Binding of [125I]-Ang II to membranes was conducted in a final volume of 0.5 mL containing 50 mM Tris-HCl (pH 7.4), 100 mM NaCl, 10 mM MgCl2, 1 mM EDTA, 0.025% bacitracin, 0.2% BSA (bovine serum albumin), liver homogenate corresponding to 5 mg of the original tissue weight, [125I]-Ang II (80000-85 000 cpm, 0.03 nM), and variable concentrations of test substance. Samples were incubated at 25 ℃ for 2 h, and binding was terminated by filtration through Whatman GF/B glass-fiber filter sheets, which had been presoaked overnight with 0.3 % polyethylamine, using a Brandel cell harvester. The filterswere washed with 3×3 mL of Tris-HCl (pH 7.4) and transferred to tubes. The radioactivity was measured in a γ-counter. The characteristics of the Ang II binding AT1receptor was determined by using six different concentrations (0.03-5 nmol/L) of the labeled [125I]-Ang II.
Nonspecific binding was determined in the presence of 1 µM Ang II.The specific binding was determined by subtracting the nonspecific binding from the total bound [125I]-Ang II.The apparent dissociation constant Ki values were calculated from IC50 values using the Cheng-Prusoff equation. […]
(§1) one-site fit.All determinations were performed in triplicate. […]
For orientation: In a radioligand displacement assay an active substance lowers the binding of a labelled ligand.

The target in data set [1] is T2, AT2 receptor (Homo sapiens, UniProt P50052).
T2 construct: expressed in transfected cells; host or cells: HEK-293
T2 sequence (P50052 1-363): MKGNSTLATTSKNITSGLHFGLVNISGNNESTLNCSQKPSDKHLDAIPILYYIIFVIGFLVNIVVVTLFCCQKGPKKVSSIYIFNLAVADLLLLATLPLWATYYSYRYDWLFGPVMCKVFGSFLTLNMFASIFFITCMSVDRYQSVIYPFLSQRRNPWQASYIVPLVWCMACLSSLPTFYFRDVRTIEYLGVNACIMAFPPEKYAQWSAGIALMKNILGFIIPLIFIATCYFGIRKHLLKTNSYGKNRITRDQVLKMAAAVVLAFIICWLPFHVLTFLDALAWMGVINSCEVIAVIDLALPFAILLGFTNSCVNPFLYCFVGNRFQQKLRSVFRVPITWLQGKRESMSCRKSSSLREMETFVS
As to the kind of experiment: HEK-293 cell AT2 receptor binding assay ([125I]-CGP42112 displacement, HEK293-hAT2R). The method, then:
All of above methods were widely accepted and used to evaluate the binding activity of AT1 and AT2 receptors.
The lysis solution was mixed and centrifuged at 12,000 g for 10 min at 4°C. Details are shown in the Supplementary Material.
After HEK-293 cells were transfected with AT2 receptor, lysis buffer (150 mM NaCl, 0.1% Triton X-100, 50 mM Tris-HCl, 1 mM EDTA, protease inhibitor) was used to separate the cell membrane of HEK-293 cells[2],using 27-G Resuspend and mix the lysis solution, and centrifuge at 12,000 g for 10 minutes at 4 °C. The supernatant was collected and centrifuged for a further 60 minutes. The precipitated membrane extracts were buffered (150 mM NaCl, 10 mM MgCl2, 0.5 % SDS, 1 % Triton X-100, 50 mM Tris-Cl, 1 mM EDTA, protease inhibitor ) for resuspension. […]
mL containing 50 mM Tris-HCl (pH 7.4), 100 mM NaCl, 10 mM MgCl2, 1 mM […]
cpm, 0.03 nM), and variable concentrations of test substance. Samples were incubated at 25 ℃ for 2 h, and binding was terminated by filtration through Whatman GF/B glass-fiber filter sheets, which had been presoaked overnight with 0.3 % polyethylamine, using a Brandel cell harvester. The filterswere washed with 3×3 mL of Tris-HCl (pH 7.4) and transferred to tubes. The radioactivity was measured in a γ-counter. The characteristics of the Ang II binding AT1 receptor was determined by […]
Nonspecific binding was determined in the presence of 1 µM Ang II.The specific binding was determined by subtracting the nonspecific binding from the total bound The apparent dissociation constant Ki values were calculated from IC50 values using the Cheng-Prusoff equation. […]
as §1

The test system of data set [2] is AT2 receptor. Briefly: Neurite outgrowth assay with NG108-15 cells (AT2 receptor function assay). The method, then: The ratio of cell neurite outgrowth was used to evaluate, and the details are shown in the Supplementary Material.
NG108-15 cells (China Center for Type Culture Collection CCTCC) were used to study the in vitro morphological effects. In their undifferentiated state, neuroblastoma × glioma hybrid NG108-15 cells havea rounded shape and divide actively. The cells were cultured from passage 18–25 in Dulbecco’s modified Eagle’s medium (DMEM, Gibco BRL, Thermo Fisher Technology (China) Co., Ltd, China) with 10% fetal bovine serum (FBS, Gibco), HAT supplement and 50 mg L^−1 gentamycin at 37°C in 75 cm^2 Nunclon Delta flasks in a humidified atmosphere of 95% air and 5% CO2, as previously described ([Buisson et al., 1992]). Subcultures were performed at subconfluency. Under these conditions, cells express mainly the AT2 receptor subtype ([Whitebread et al., 1991]). Cells were treated during 3 days, once a day (first treatment 24 h after plating), and micrographs were taken on the fourth day. The details of experimental grouping and administration method are shown in the Supplementary Material. […]
4. NG108-15 cell experiment steps […]
peptidic AT2 receptor agonist CGP-42112A induces neurite outgrowth. The […]
plated as described in the Experimental Section, and adequate test concentrations for […]
each compound were determined by testing a dilution series of each compound […]
ranging from 1 pM to 1 uM.
The chemicals used in the present study were obtained from the following sources: Dulbecco’s modified Eagle’s medium (DMEM), heat-inactivated fetal bovine serum (FBS), HAT supplement (hypoxanthine, aminopterin, thymidine), gentamycin from Gibco BRL (Burlington, Ontario, Canada), and Ang II from MedChemExpress

Where two headings read alike, the source gives them in different places.

T1 sequence (P25095 whole entry): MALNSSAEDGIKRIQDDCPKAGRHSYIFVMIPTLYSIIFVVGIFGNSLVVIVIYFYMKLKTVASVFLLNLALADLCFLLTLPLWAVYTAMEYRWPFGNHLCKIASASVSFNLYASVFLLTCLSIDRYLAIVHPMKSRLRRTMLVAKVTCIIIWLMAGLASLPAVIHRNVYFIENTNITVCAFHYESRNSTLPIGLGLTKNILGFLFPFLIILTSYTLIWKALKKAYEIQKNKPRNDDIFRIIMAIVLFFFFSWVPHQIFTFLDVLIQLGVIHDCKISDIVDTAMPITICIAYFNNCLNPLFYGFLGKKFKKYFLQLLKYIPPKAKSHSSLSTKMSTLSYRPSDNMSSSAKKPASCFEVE

Compound `CCCCC(=O)NS(=O)(=O)c1ccc(CC(C)C)cc1-c1cccc(Cn2cncn2)c1` [8a, N-((3'-((1H-1,2,4-triazol-1-yl)methyl)-5-isobutyl-[1,1′-biphenyl]-2-yl)sulfonyl)pentanamide] had a melting point of 138.4 to 139.7 °C. In addition, the Ki at AT1 receptor amounted to 629.4 ± 1.1 nM. Moreover, the affinity at AT2 receptor [1] corresponds to a Ki of 873.7 ± 1.1 nM.

Compound `CCCCOC(=O)NS(=O)(=O)c1ccc(CC(C)C)cc1-c1cccc(Cn2cncn2)c1` [8b, ((3'-((1H-1,2,4-triazol-1-yl)methyl)-5-isobutyl-[1,1′-biphenyl]-2-yl)sulfonyl)carbamae] registered a melting point of 148.1 to 149.3 °C. Also, the Ki at AT1 receptor was determined as 846.1 ± 1.17 nM. The same compound gave a Ki on AT2 receptor [1] of 273.5 ± 1.2 nM.

In turn, `CC(C)COC(=O)NS(=O)(=O)c1ccc(CC(C)C)cc1-c1cccc(Cn2cncn2)c1` [8c, Isobutyl((3'-((1H-1,2,4-triazol-1-yl)methyl)-5-isobutyl-[1,1′-biphenyl]-2-yl)sulfonyl)carbamate] showed a melting point of 145.3 to 146.2 °C. The inhibition constant Ki at AT1 receptor is 1037 ± 1.1 nM. On AT2 receptor [1], this compound had an inhibition constant Ki of 322 ± 1.24 nM.

Compound `CCCCC(=O)NS(=O)(=O)c1ccc(CCCC)cc1-c1cccc(Cn2cncn2)c1` [8e, N-((3'-((1H-1,2,4-triazol-1-yl)methyl)-5-butyl-[1,1′-biphenyl]-2-yl)sulfonyl)pentanamide] registered a melting point of 141.8 to 142.4 °C. Also, on AT1 receptor, the Ki came out at 505.2 ± 1.4 nM. Besides, on AT2 receptor [1], the Ki stood at 753.9 ± 1.1 nM.

Consider `CCCCOC(=O)NS(=O)(=O)c1ccc(CCCC)cc1-c1cccc(Cn2cncn2)c1` [8f, Butyl((3'-((1H-1,2,4-triazol-1-yl)methyl)-5-butyl-[1,1′-biphenyl]-2-yl)sulfonyl)carbamate], for which the melting point fell in the range of 150.1 to 151.4 °C. On AT1 receptor, the Ki is 1425 ± 1.12 nM. The Ki on AT2 receptor [1] turned out to be 252.7 ± 1.2 nM.

For `CCCCc1ccc(S(=O)(=O)NC(=O)OCC(C)C)c(-c2cccc(Cn3cncn3)c2)c1` [8g, Isobutyl((3'-((1H-1,2,4-triazol-1-yl)methyl)-5-butyl-[1,1′-biphenyl]-2-yl)sulfonyl)carbamate], the melting point was 168.4 to 169.1 °C. Further, the Ki on AT1 receptor is 945.5 ± 1.22 nM. For the same compound, at AT2 receptor [1], the inhibition constant (Ki) was 347.5 ± 1.36 nM.

Regarding `CCCCC(=O)NS(=O)(=O)c1ccc(CC(C)C)cc1-c1cccc(Cn2cccn2)c1` [9a, N-((3'-((1H-pyrazol-1-yl)methyl)-5-isobutyl-[1,1′-biphenyl]-2-yl)sulfonyl)pentanamide], the melting point lay in the range of 125.8 to 126.7 °C. Besides, on AT1 receptor, the inhibition constant Ki was determined as 1264 ± 1.14 nM. At AT2 receptor [1], this compound gave a Ki of 1152 ± 1.1 nM.

`CCCCOC(=O)NS(=O)(=O)c1ccc(CC(C)C)cc1-c1cccc(Cn2cccn2)c1` [9b, Butyl((3'-((1H-pyrazol-1-yl)methyl)-5-isobutyl-[1,1′-biphenyl]-2-yl)sulfonyl)carbamate] had a melting point of 129.1 to 131.4 °C. Moreover, the Ki on AT1 receptor stood at 989.7 ± 1.08 nM. For the same compound, the Ki on AT2 receptor [1] (displacement of [125I]-CGP42112, HEK293-hAT2R membranes, means ± SE, triplicate, read-out: Ki (nM) AT2R) was 1027 ± 1.15 nM.

Compound `CC(C)COC(=O)NS(=O)(=O)c1ccc(CC(C)C)cc1-c1cccc(Cn2cccn2)c1` [9c, Isobutyl((3'-((1H-pyrazol-1-yl)methyl)-5-isobutyl-[1,1′-biphenyl]-2-yl)sulfonyl)carbamate] came in with a melting point of 149.6 to 151.3 °C. The Ki at AT1 receptor turned out to be 1027 ± 1.08 nM. The compound further returned an inhibition constant Ki on AT2 receptor [1] of 916.2 ± 1.3 nM.

`CC(C)Cc1ccc(S(=O)(=O)NC(=O)OC(C)C)c(-c2cccc(Cn3cccn3)c2)c1` [9d, Isopropyl((3'-((1H-pyrazol-1-yl)methyl)-5-isobutyl-[1,1′-biphenyl]-2-yl)sulfonyl)carbamate] returned a melting point of 146.6 to 147.5 °C. Further, the inhibition constant (Ki) at AT1 receptor amounted to 1549 ± 1.11 nM. The Ki at AT2 receptor [1] came to 74.1 ± 1.16 nM.

Consider `CCCCC(=O)NS(=O)(=O)c1ccc(CCCC)cc1-c1cccc(Cn2cccn2)c1` [9e, N-((3'-((1H-pyrazol-1-yl)methyl)-5-butyl-[1,1′-biphenyl]-2-yl)sulfonyl)pentanamide], for which the melting point lay within 140.1 to 141.3 °C. Besides, the Ki at AT1 receptor was determined as 363.9 ± 1.28 nM. The same compound showed an inhibition constant Ki at AT2 receptor [1] of 992.9 ± 1.26 nM.

As to `CCCCOC(=O)NS(=O)(=O)c1ccc(CCCC)cc1-c1cccc(Cn2cccn2)c1` [9f, Butyl((3'-((1H-pyrazol-1-yl)methyl)-5-butyl-[1,1′-biphenyl]-2-yl)sulfonyl)carbamate], the melting point was in the range of 142.5 to 143.1 °C. The Ki at AT1 receptor was 1310 ± 1.11 nM. On AT2 receptor [1], this compound showed a Ki of 467.9 ± 1.19 nM.

The compound `CCCCc1ccc(S(=O)(=O)NC(=O)OCC(C)C)c(-c2cccc(Cn3cccn3)c2)c1` [9g, Isobutyl((3'-((1H-pyrazol-1-yl)methyl)-5-butyl-[1,1′-biphenyl]-2-yl)sulfonyl)carbamate] had a melting point of 149.3 to 151.2 °C. Further, on AT1 receptor, the inhibition constant (Ki) was determined as 1212 ± 1.12 nM. In addition, the Ki at AT2 receptor [1] came to 513.3 ± 1.18 nM.

As for `Cc1cc(Cn2cnc3c2C[C@@H](C(=O)O)N(C(=O)C(c2ccccc2)c2ccccc2)C3)ccc1N(C)C` [PD-123,319, reference compound], the “morphology compared to untreated cells” value in the data set with AT2 receptor [2] (PD-123,319 alone) is on record as “did not alter”.

Ang II [reference compound]: the “ratio of cell neurite outgrowth (cells with neurites as percentage of total cells)” value in the data set with AT2 receptor [2] (3-day treatment, substance alone (Ang II 100 nM; compounds 10 or 100 nM)) was roughly 20%.

One may read the melting point as the temperature, or range, at which the solid turns liquid. Usually Ki stands for the dissociation constant of the complex between target and ligand, obtained from inhibition or displacement.
